Data: patent US20070207987A1, “Androgen Modulators” (WARNER-LAMBERT COMPANY LLC, priority 2004, published 2007)
pIC50: −log10 of the molar value. Read-outs that look alike come from different tables or passages of the source.

Columns and labels:
hAR = biological target: T1, hAR (Homo sapiens, UniProt P10275); assay: Competitive binding of 3H-DHT to hAR extracts; details: baculovirus/Sf9 hAR extract, 1 nM 3H-DHT, one hour at 4° C., mean of multiple tests
T1 construct: made in house; host or cells: baculovirus/Sf9 insect cells
T1 sequence (P10275 1-920): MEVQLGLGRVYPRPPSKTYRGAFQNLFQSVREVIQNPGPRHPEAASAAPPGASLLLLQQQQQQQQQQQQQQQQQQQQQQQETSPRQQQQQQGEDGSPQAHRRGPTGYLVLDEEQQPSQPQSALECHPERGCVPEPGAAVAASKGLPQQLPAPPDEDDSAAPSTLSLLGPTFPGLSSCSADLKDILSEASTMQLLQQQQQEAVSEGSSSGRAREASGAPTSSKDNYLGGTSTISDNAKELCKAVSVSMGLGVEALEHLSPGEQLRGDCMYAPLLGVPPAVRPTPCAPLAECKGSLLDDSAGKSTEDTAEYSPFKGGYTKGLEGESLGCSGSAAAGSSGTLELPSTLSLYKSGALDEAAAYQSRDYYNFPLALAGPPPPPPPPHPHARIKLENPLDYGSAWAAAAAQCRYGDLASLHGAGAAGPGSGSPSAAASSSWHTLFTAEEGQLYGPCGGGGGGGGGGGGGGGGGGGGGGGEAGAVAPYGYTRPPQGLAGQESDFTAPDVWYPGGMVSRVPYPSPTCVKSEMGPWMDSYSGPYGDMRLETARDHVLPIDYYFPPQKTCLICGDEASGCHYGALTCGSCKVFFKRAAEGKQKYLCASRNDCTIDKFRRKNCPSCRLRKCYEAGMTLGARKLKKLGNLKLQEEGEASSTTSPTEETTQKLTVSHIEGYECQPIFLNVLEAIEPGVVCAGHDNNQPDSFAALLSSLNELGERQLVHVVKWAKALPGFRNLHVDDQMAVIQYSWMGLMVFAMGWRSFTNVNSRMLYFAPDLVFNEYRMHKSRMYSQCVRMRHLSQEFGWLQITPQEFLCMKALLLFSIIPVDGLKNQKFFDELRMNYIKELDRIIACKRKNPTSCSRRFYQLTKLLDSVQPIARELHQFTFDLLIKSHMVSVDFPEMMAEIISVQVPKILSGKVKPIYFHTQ
Protocol: The compounds of Formula I have affinity for the androgen receptor. […] The description below describes how the assay was carried out.
Competitive binding analysis was performed on baculovirus/Sf9 generated hAR extracts in the presence or absence of different concentrations of test agent and a fixed concentration of ^3H-dihydrotestosterone (^3H-DHT) as tracer. This binding assay method is a modification of a protocol previously described (Liao S., et. al. J. Steroid Biochem. 20:11-17 1984). Briefly, progressively decreasing concentrations of compounds are incubated in the presence of hAR extract (Chang et al. P.N.A.S. Vol. 89, pp. […], 1992), hydroxylapatite, and 1 nM ^3H-DHT for one hour at 4° C. Subsequently, the binding reactions are washed three times to completely remove excess unbound ^3H-DHT. hAR bound ^3H-DHT levels are determined in the presence of compounds (i.e. competitive binding) and compared to levels bound when no competitor is present (i.e. maximum binding). Compound binding affinity to the hAR is expressed as the concentration of compound at which one half of the maximum binding is inhibited. Table I below provides the results that were obtained for selected compounds (reported data is the mean of multiple tests as shown below)

androgen receptor = androgen receptor (Homo sapiens, UniProt P10275); assay: AR antagonist cell assay (MMTV-luciferase reporter, MDA-MB453-MMTV clone 54-19); assay type: cell-based
Protocol: The compounds ability to antagonize the effects of androgen on the androgen receptor were determined in a whole cell assay as described immediately below.
Experimental Procedure for AR Antagonist Cell Assay
This cell line is a stable transfected cell line with MDA-MB453 cell background (a human breast tumor cell line expressing androgen receptor). A MMTV minimal promoter containing ARE was first cloned in front of a firefly luciferase reporter gene. Then the cascade was cloned into transfection vector pUV120puro. Electroporation method was used for transfecting MDA-MB-453 cell. Puromycin resistant stable cell line was selected.
Cell Culture Media and Reagents:
Culture medium: DMEM (high glucose, Gibco cat #: 11960-044), 10% FBS, and 1% L-glutamine
Plating medium: DMEM (phenol red free), 10% charcoal treated HyClone serum, 1% L-glutamine
Assay medium: DMEM (phenol red free), 1% charcoal treated HyClone serum, 1% L-glutamine, and 1% penicillin/streptomycin
3× luciferase buffer: 2% beta-mercaptoethanol, 0.6% ATP, 0.0135% luciferine in cell lysis buffer
• 1. Cells are maintained in culture medium, splitting cells when they reach 80-90% confluence • 2. To test compounds, 10,000 cells/well are plated to opaque 96 cell culture plate in 100 ul/well plating medium, culture for overnight at 37° C. in cell culture incubator • 3. Carefully remove plating medium, then add 80 ul/well of pre-warmed assay medium, add 10 ul/well testing compound (final concentration at) 1000 nM, 200 nM, 40 nM, 8 nM, 1.6 nM, and 0.32 nM), incubate at 37° C. for 30 minutes • 4. Add 10 ul/well freshly prepared DHT (final concentration at 100 pM) to each well, incubate at 37° C. for 17 hr (overnight) • 5.
The results are reported as the mean of multiple tests as described below (the numbers of tests are indicated in the footnote). N.D. denotes that the compound was not tested.

male Syrian hamsters = assay: Animal model for inhibition of sebum production (hamster ear); assay type: in vivo, Syrian hamster; details: five days a week, 4 weeks; for % CE reduction / % WE reduction: vs vehicle control
Protocol: Luderschmidt et al. describes an animal model for testing whether compounds are capable of modulating sebum secretion. Arch. Derm. Res. 258, 185-191 (1977). This model uses male Syrian hamsters, whose ears contain sebaceous glands. The products of Examples 1 and 2 were screened in this model.
Testing for sebum inhibition was carried out in the following manner. Male Syrian hamsters aged 9 to 10 weeks were introduced into the laboratory environment and acclimated for 2 weeks prior to use in the study. Each group consisted of 5 animals and run in parallel with vehicle and positive controls. Prior to administration, a sufficient quantity each compound was dissolved in 1 mL of a solvent consisting of transcutol, propylene glycol, and ethanol (2/2/6 v/v/v) to achieve the final concentration described in Table III.
Animals were dosed topically twice daily, five days a week, for 4 weeks. Each dose consisted of 25 micro liters of vehicle control or drug. The dose was applied to the ventral surfaces of both the right and left ears. All animals were sacrificed approximately 18-24 hours after the final dose. The right ears were collected from each animal and used for sebum analysis.
The ears were prepped for HPLC analysis in the following manner. One 8 mm distal biopsy punch was taken, just above the anatomical “V” mark in the ear to normalize the sample area. The punch was pulled apart. The ventral biopsy surface (the area where the topical dose was directly applied to the sebaceous glands) was retained for testing and the dorsal surface of the biopsy punch was discarded.
Tissue samples were blown with N2 gas and stored at −80° C. under nitrogen until HPLC analysis. In addition to ear samples, an aliquot of each drug and vehicle (at least 250 ul) was also stored at −80° C. for inclusion in the HPLC analysis.
HPLC analysis was carried out on an extract of the tissue sample. Tissue samples were contacted with 3 ml of solvent (a 4:1 admixture of 2,2,4-trimethylpentane and isopropyl alcohol). The mixture was shaken for 15 minutes and stored overnight at room temperature, protected from light. The next morning 1 milliliter of water was added to the sample and shaken for 15 minutes. The sample was then centrifuged at approximately 1500 rpm for 15 minutes. Two ml of the organic phase (top layer) was transferred to a glass vial, dried at 37° C., under nitrogen, for approximately 1 hour, and then lyophilized for approximately 48 hours. The samples were then removed from the lyophilizer and each vial was reconstituted with 600 μl of solvent A (trimethylpentane/tetrahydrofuran (99:1). The samples were then recapped and vortexed for 5 minutes.
200 μl of each sample was then transferred to a pre-labeled 200 μl HPLC vial with 200 μL glass inserts. The HPLC vials were placed in the autosampler tray for the Agilent 1100 series HPLC unit. The Agilent 1100 HPLC system consisted of a thermostated autosampler, a quarternary pump, a column heater, and an A/D interface module. All components were controlled by Agilent ChemStation software. A Waters Spherisorb S3W 4.6×100 mm analytical column was maintained at 30° C. by the Agilent column heater unit. The HPLC autosampler was programmed to maintain the sample temperature at 20 C. throughout the run.
10 uL of each sample was injected in triplicate into the column. Two solvents were used for the solvent gradient. Solvent A was an admixture of trimethylpentane and tetrahydrofuran (99:1). Solvent B was ethylacetate. The gradient utilized is described in the table below: […]
The Sedex 75 Evaporative Light Scattering Detector (ELSD) was operated at 45° C. with a gain of 5, and N2 pressure maintained at 3.1 bar. Analog signal obtained by the instrument was sent to the Agilent A/D interface module where it was converted to a digital output. The conversion was based on a 10000 mAU/volt set point and the data rate was set at 10 Hz (0.03 min). […]

patients = details: after 7 years of treatment; cited from earlier work

Compound	pIC50 (hAR; ARB (IC50))	pIC50 (hAR; read-out: ARB (IC50))	melting point [°C]	also measured
CC1(C)COC(=O)C1Oc1ccc(C#N)c(C(F)(F)F)c1 (racemic) [Example 1, (±)-4-(4,4-Dimethyl-2-oxo-tetrahydro-furan-3-yloxy)-2-trifluoromethyl-benzonitrile)]	6.91			pIC50 (androgen receptor): 7.22; Sum of WE & WE (male Syrian hamsters; 1% w/v topical twice daily): 128; % CE reduction (male Syrian hamsters; 1% w/v topical twice daily): 55%; % WE reduction (male Syrian hamsters; 1% w/v topical twice daily): 73%
N#Cc1ccc(OC2CCOC2=O)cc1C(F)(F)F (racemic) [Example 4, (±)-4-(2-Oxo-tetrahydro-furan-3-yloxy)-2-trifluoromethyl-benzonitrile]		5.23	120	
N#Cc1ccc(OC2CCOC2=O)cc1C(F)(F)F (single isomer, unassigned; (+)) [Example 5, (+)-4-(2-Oxo-tetrahydro-furan-3-yloxy)-2-trifluoromethyl-benzonitrile]		5.01	107 to 108	
N#Cc1ccc(OC2CCOC2=O)cc1C(F)(F)F (single isomer, unassigned; (-)) [Example 6, (−)-4-(2-Oxo-tetrahydro-furan-3-yloxy)-2-trifluoromethyl-benzonitrile]		5.78		
CC1(C)COC(=O)[C@@H]1Oc1ccc(C#N)c(C(F)(F)F)c1 [Example 2, (R)-(+)-4-(4,4-Dimethyl-2-oxo-tetrahydro-furan-3-yloxy)-2-trifluoromethyl-benzonitrile]	7.15		89.9 to 90.7	pIC50 (androgen receptor): 7.33; Sum of WE & WE (male Syrian hamsters; 3% w/v topical twice daily): 171; % CE reduction (male Syrian hamsters; 3% w/v topical twice daily): 79%; % WE reduction (male Syrian hamsters; 3% w/v topical twice daily): 92%
CC1(C)COC(=O)[C@H]1Oc1ccc(C#N)c(C(F)(F)F)c1 [Example 3, (S)-(−)-4-(4,4-Dimethyl-2-oxo-tetrahydro-furan-3-yloxy)-2-trifluoromethyl-benzonitrile]	< 5.00		83.1 to 84.4	pIC50 (androgen receptor; inhibition of induction by 100 pM DHT, 17 hr, mean of multiple tests, read-out: ARCell (IC50)): < 6.00
NCCCC(O)(P(=O)(O)O)P(=O)(O)O [alendronate]				Increase in spinal BMD (patients): ≤ 11%
